Results on nine compounds are retold here after patent US20240150377A1, “MODULATORS OF CYSTIC FIBROSIS TRANSMEMBRANE CONDUCTANCE REGULATOR” (VERTEX PHARMACEUTICALS INCORPORATED, priority 2020, published 2024).

As a reminder, the EC50 is the concentration giving half of the maximal effect.

Like-named read-outs stand apart in the source and are kept apart here.

For data set [1] the following is noted: amide bond, 13-membered ring, DMF.
Data set [2] deals with T1, CFTR (Homo sapiens, UniProt P13569). As to the kind of experiment: Membrane potential dye, Enteroid Assay B. The format is cell-based. To be noted: Table 7. Summed up: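 Fluorescence read over 15 min after chloride-free stimulation (10 μM forskolin, 100 μM IBMX, 300 nM Compound III) gave chloride transport, reported as % activity versus a triple-corrector/potentiator control. Beforehand, human enteroid cells had 18-24 h compound exposure at 37° C and 25 min methyl oxonol dye loading at room temperature.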

The target in data set [3] is T1, CFTR. The experiment in a line: Membrane potential dye, Enteroid Assay A. The format is cell-based. To be noted: for Ent. A Max Activity: chloride transport as % of triple combination control (Enteroid Assay A); for EC50: human enteroid cells, 18-24 hours, acute 10 μM forskolin and 300 nM ivacaftor, read-out: Ent. A EC50. Summed up: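 % Activity: chloride transport relative to a 3 μM/3 μM corrector pair plus 300 nM acute potentiator control. Primary human enteroid cells, 18-24 h compound exposure at 37 °C; membrane potential dye (methyl oxonol) fluorescence over 15 min after forskolin (10 μM)/IBMX (100 μM)/Compound III (300 nM) stimulation in chloride-free buffer.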

For data set [4] the following is noted: amide bond, 13-membered ring.
Another data set deals with T2, F508del (Homo sapiens, UniProt P13569, DEL508-508).
T2 construct: expressed in transfected cells
The experiment in a line: 3T3 assay: membrane potential optical assay for F508del correction. The format is cell-based. The conditions noted are these: Table 6, F508del NIH 3T3 cells; for Emax: NIH3T3, compared to lumacaftor in combination with acutely added 300 nM Ivacaftor, read-out: 3T3 Max Activity; for EC50: 18-24 hours at 37° C., forskolin, acutely added 300 nM Ivacaftor. Summed up: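 NIH 3T3 mouse fibroblasts stably expressing F508del incubated with corrector compounds across a concentration range for 16-24 hours at 37° C, then loaded with voltage-sensing redistribution dye. Response is FLIPR membrane potential change on forskolin activation with a chloride gradient (chloride-free gluconate bath, HEPES pH 7.4).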

T2 sequence (P13569 with tags, fused parts or gaps DEL508-508): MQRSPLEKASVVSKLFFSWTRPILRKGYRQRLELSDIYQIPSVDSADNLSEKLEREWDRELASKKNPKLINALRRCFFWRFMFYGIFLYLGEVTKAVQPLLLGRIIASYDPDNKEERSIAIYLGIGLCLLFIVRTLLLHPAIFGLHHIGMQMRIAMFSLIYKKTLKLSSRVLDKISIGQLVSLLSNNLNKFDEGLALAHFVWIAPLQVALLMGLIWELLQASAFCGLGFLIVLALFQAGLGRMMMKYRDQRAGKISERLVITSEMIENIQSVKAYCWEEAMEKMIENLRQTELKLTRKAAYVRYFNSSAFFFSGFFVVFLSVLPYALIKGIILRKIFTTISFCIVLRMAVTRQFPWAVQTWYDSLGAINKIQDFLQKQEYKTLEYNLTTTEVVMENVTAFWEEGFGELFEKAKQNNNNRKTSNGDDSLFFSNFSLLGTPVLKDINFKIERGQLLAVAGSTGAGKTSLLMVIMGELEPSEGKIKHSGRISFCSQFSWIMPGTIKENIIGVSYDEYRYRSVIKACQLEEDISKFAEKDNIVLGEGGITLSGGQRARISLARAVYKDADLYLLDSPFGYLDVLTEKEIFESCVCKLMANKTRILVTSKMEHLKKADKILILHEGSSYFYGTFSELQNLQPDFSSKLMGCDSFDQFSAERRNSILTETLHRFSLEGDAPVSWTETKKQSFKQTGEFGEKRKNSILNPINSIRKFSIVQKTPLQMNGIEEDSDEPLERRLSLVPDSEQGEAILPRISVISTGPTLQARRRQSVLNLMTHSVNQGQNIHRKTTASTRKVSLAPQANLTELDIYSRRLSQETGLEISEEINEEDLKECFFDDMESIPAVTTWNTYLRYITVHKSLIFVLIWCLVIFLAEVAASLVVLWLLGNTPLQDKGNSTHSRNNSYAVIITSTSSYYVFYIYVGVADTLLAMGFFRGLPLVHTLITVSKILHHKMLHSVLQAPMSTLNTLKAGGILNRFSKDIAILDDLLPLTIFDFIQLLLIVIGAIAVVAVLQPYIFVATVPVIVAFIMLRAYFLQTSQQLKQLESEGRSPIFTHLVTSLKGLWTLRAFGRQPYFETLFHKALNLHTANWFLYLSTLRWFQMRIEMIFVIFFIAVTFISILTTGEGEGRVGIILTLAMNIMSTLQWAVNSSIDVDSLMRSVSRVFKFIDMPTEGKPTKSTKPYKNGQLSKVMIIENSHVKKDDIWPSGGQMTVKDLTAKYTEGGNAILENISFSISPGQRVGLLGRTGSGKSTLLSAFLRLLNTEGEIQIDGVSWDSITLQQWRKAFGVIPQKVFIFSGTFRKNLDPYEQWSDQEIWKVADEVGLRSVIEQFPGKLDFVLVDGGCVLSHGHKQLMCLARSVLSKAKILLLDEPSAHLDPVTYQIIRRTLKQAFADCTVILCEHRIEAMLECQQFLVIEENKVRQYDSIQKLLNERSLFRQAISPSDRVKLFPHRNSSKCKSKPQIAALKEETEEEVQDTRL
T1 sequence (P13569 with tags, fused parts or gaps DEL508-508): as above

In data set [1] (from Cc1cccc(C)c1-c1cc(OC[C@@H](CC(C)(C)C)NCc2cncc(Cl)n2)nc(NS(=O)(=O)c2cccc(C(=O)O)c2)n1, CDMT/NMM, 12.4 mM, 25.0 °C, 16.5 h), `Cc1cccc(C)c1-c1cc2nc(n1)NS(=O)(=O)c1cccc(c1)C(=O)N(Cc1cncc(Cl)n1)[C@H](CC(C)(C)C)CO2` came in with a ring closure, isolated yield of 56%.

With `COCCCCN1C(=O)c2cccc(c2)S(=O)(=O)Nc2nc(cc(-c3c(C)cccc3C)n2)OC[C@H]1CC(C)C` [Compound 84, (11R)-6-(2,6-dimethylphenyl)-11-isobutyl-12-(4-methoxybutyl)-2,2-dioxo-9-oxa-2λ^6-thia-3,5,12,19-tetrazatricyclo[12.3.1.14,8]nonadeca-1(18),4(19),5,7,14,16-hexaen-13-one], the “Ent. B Max Activity” value at CFTR [2] (chloride transport as % of triple combination control (Enteroid Assay B)) was “+++ (+++ is >60%)”. Further, the 50% effective concentration (EC50) at CFTR [2] (human enteroid cells, 18-24 hours, acute 10 μM forskolin and 300 nM ivacaftor, read-out: Ent. B EC50) is below 1000 nM. Also, on CFTR [3] (Table 7), the “Ent. A Max Activity” value was “+++ (+++ is >60%)” and the half-maximal effective concentration (EC50) was below 1000 nM. This compound also came in with a ring closure, yield after HPLC in data set [4] (from COCCCCN[C@@H](COc1cc(-c2c(C)cccc2C)nc(NS(=O)(=O)c2cccc(C(=O)O)c2)n1)CC(C)C, NaOtBu then HATU, THF, 98.4 mM, 25.0 °C, 1.0 h, 2 steps) of 9%.

For `Cc1cccc(C)c1-c1cc2nc(n1)NS(=O)(=O)c1cccc(c1)C(=O)N(CC1CC3(CCN(C(=O)OC(C)(C)C)CC3)C1)[C@H](CC(C)C)CO2`, the ring closure, isolated yield in data set [1] (from Cc1cccc(C)c1-c1cc(OC[C@@H](CC(C)C)NCC2CC3(CCN(C(=O)OC(C)(C)C)CC3)C2)nc(NS(=O)(=O)c2cccc(C(=O)O)c2)n1, HATU/DIEA, 9.3 mM, 25.0 °C, 2.0 h, 2 steps) is 33%.

On to `Cc1cccc(C)c1-c1cc2nc(n1)NS(=O)(=O)c1cccc(c1)C(=O)N(Cc1ccc3cc(I)n(C)c3n1)[C@H](CC(C)(C)C)CO2`, for which the ring closure, isolated yield in data set [1] (from Cc1cccc(C)c1-c1cc(OC[C@@H](CC(C)(C)C)NCc2ccc3cc(I)n(C)c3n2)nc(NS(=O)(=O)c2cccc(C(=O)O)c2)n1, 2-chloro-1-methylpyridinium iodide/DIEA, 41.5 mM, 16.0 h) turned out to be 72%.

For `Cc1cccc(C)c1-c1cc2nc(n1)NS(=O)(=O)c1cccc(c1)C(=O)N(CC1CC3(CCOCC3)C1)[C@H](CC(C)C)CO2` [Compound 40, (11R)-6-(2,6-Dimethylphenyl)-11-isobutyl-12-(7-oxaspiro[3.5]nonan-2-ylmethyl)-2,2-dioxo-9-oxa-2λ^6-thia-3,5,12,19-tetrazatricyclo[12.3.1.14,8]nonadeca-1(18),4(19),5,7,14,16-hexaen-13-one], on F508del, the Emax is above 60% and the EC50 was below 1000 nM. Also, at CFTR [3] (Table 6), the “Ent. A Max Activity” value is given as “+++ (+++ is >60%)” and the EC50 is below 1000 nM. The ring closure, yield after HPLC in data set [4] (from Cc1cccc(C)c1-c1cc(OC[C@@H](CC(C)C)NCC2CC3(CCOCC3)C2)nc(NS(=O)(=O)c2cccc(C(=O)O)c2)n1, HATU/DIEA, DMF, 18.8 mM, 1.0 h) is 63%.

In data set [1] (from Cc1cccc(C)c1-c1cc(OCC2(NCc3cncc(N(C)C4CCC4)n3)CCC(C)(C)C2)nc(NS(=O)(=O)c2cccc(C(=O)O)c2)n1, CDMT/NMM, 18.1 mM, 120.0 h), `Cc1cccc(C)c1-c1cc2nc(n1)NS(=O)(=O)c1cccc(c1)C(=O)N(Cc1cncc(N(C)C3CCC3)n1)C1(CCC(C)(C)C1)CO2` (centres unmarked) returned a ring closure, isolated yield of 36%.

As for `Cc1cccc(C)c1-c1cc2nc(n1)NS(=O)(=O)c1cccc(c1)C(=O)N(CC(C)C)CCO2` [Compound 4, 6-(2,6-Dimethylphenyl)-12-isobutyl-2,2-dioxo-9-oxa-2λ^6-thia-3,5,12,19-tetrazatricyclo[12.3.1.14,8]nonadeca-1(18),4(19),5,7,14,16-hexaen-13-one], on F508del, the Emax was above 60% and the 50% effective concentration (EC50) was below 1000 nM. In addition, on CFTR [3] (Table 6), the “Ent. A Max Activity” value is given as “+++ (+++ is >60%)” and the EC50 is below 1000 nM. Further, the ring closure, yield after HPLC in data set [4] (from Cc1cccc(C)c1-c1cc(OCCNCC(C)C)nc(NS(=O)(=O)c2cccc(C(=O)O)c2)n1, HATU/TEA, DMF, 91.6 mM, 0.5 h) was found to be 48%.

With `Cc1cccc(C)c1-c1cc2nc(n1)NS(=O)(=O)c1cccc(c1)C(=O)N(CCC1(C(F)(F)F)CC1)[C@H](CC(C)C)CO2` [Compound 37, (11R)-6-(2,6-Dimethylphenyl)-11-(2-methylpropyl)-12-{2-[1-(trifluoromethyl)cyclopropyl]ethyl}-9-oxa-2λ^6-thia-3,5,12,19-tetraazatricyclo[12.3.1.14,8]nonadeca-1(17),4(19),5,7,14(18),15-hexaene-2,2,13-trione], on F508del, the Emax was above 60% and the EC50 was below 1000 nM. Further, on CFTR [3] (Table 6), the “Ent. A Max Activity” value is “+++ (+++ is >60%)” and the 50% effective concentration (EC50) was below 1000 nM. The compound also displayed a ring closure, yield after HPLC in data set [4] (from Cc1cccc(C)c1-c1cc(OC[C@@H](CC(C)C)NCCC2(C(F)(F)F)CC2)nc(NS(=O)(=O)c2cccc(C(=O)O)c2)n1, HATU/DIEA, DMF, 25.2 mM, 25.0 °C, 1.0 h) of 37%.

On to `Cc1cccc(C)c1-c1cc2nc(n1)NS(=O)(=O)c1cccc(c1)C(=O)N(C)[C@H](CC(C)C)[C@H](CC(C)C)O2` [Compound 2, (10S,11R)-6-(2,6-Dimethylphenyl)-12-methyl-10,11-bis(2-methylpropyl)-9-oxa-2λ^6-thia-3,5,12,19-tetraazatricyclo[12.3.1.14,8]nonadeca-1(18),4(19),5,7,14,16-hexaene-2,2,13-trione], for which, at F508del, the Emax is above 60% and the 50% effective concentration (EC50) is below 1000 nM. In addition, at CFTR [3] (Table 6), the “Ent. A Max Activity” value is given as “+++ (+++ is >60%)” and the EC50 was below 1000 nM. In data set [4] (from CN[C@H](CC(C)C)[C@H](CC(C)C)Oc1cc(-c2c(C)cccc2C)nc(NS(=O)(=O)c2cccc(C(=O)O)c2)n1, HATU/TEA, DMF, 18.8 mM, 15.0 h), the ring closure, yield after HPLC worked out at 47%.
